# Measured values as given in patent US20150231236A1, “METHODS FOR TREATING PATIENTS WITH HYPERCHOLESTEROLEMIA THAT IS NOT ADEQUATELY CONTROLLED BY MODERATE-DOSE STATIN THERAPY” (Regeneron Pharmaceuticals, Inc., priority 2014, published 2015).
# What was measured:
# [1] = system: patients with hypercholesterolemia at high CV risk not adequately controlled with atorvastatin (20 mg or 40 mg); test: Example 2: randomized, double-blind trial, lipid efficacy of mAb316P add-on to atorvastatin vs EZE add-on, atorvastatin dose doubling or switch to rosuvastatin; format: in vivo, human; conditions: for reduced LDL-C levels by: week 24, add-on mAb316P
# Experimental: The present study was a randomized, double-blind, active-comparator, parallel-group study in patients at high CV risk with non-FH or heFH who are not adequately controlled with atorvastatin (20 mg or 40 mg) with or without other lipid-modifying therapy (LMT) (excluding EZE). The study design is illustrated in FIG. 1. Patients who entered the study were taking either atorvastatin 20 mg or atorvastatin 40 mg. The former patients were randomized to 1 of 3 treatment arms (arms 1 to 3); the latter patients were randomized to 1 of 4 treatment arms (arms 4 to 7). The treatment arms are as follows:
# (1) mAb316P+atorvastatin 20 mg+placebo-EZE; (2) Placebo-mAb316P+atorvastatin 40 mg+placebo-EZE; and (3) Placebo-mAb316P+atorvastatin 20 mg+EZE 10 mg.
# (4) mAb316P+atorvastatin 40 mg+placebo-EZE; (5) Placebo-mAb316P+atorvastatin 80 mg+placebo-EZE; (6). Placebo-mAb316P+rosuvastatin 40 mg+placebo-EZE; and (7) Placebo-mAb316P+atorvastatin 40 mg+EZE 10 mg.
# (B) a double-blind treatment period of 24 weeks. Each patient received a SC injection Q2W (mAb316P or placebo-mAb316P) and was administered (or instructed to take) 2 oral blinded medications daily (a statin [atorvastatin or rosuvastatin] and EZE or placebo-EZE). The first injection of mAb316P or placebo-mAb316P was administered at the clinical site on day 1, after study assessments were completed, and as soon as possible after the patient was randomized into the study. The patient/caregiver administered subsequent injections outside of the clinic according to the dosing schedule. On days where the clinic study visit coincided with dosing, the dose of study drugs (injectable and oral) were administered after all study assessments had been performed and all laboratory samples collected. The last dose of mAb316P or placebo-mAb316P was administered at week 22. The last dose of daily oral study drugs was administered at week 24. At week 12, based on their baseline CV risk, certain patients randomized to mAb316P in a blinded manner, had their dose increased as follows:
# Each patient received a subcutaneous (SC) injection once every two weeks (Q2W) (mAb316P or placebo-mAb316P) and took 2 oral blinded medications daily (a statin [atorvastatin or rosuvastatin] and EZE or placebo-EZE).
# The injectable study treatment was a single SC injection of 1 mL for a 75 mg or 150 mg dose of mAb316P or placebo-mAb316P provided in an auto-injector, administered in the abdomen, thigh, or outer area of the upper arm. The first injection of study drug was administered at the clinical site, as soon as possible after the patient was randomized into the study. The patient was monitored at the clinical site for at least 30 minutes following the first injection. The patient/caregiver administered subsequent injections outside of the clinic, according to the dosing schedule. On days where the clinic study visit coincided with dosing, the dose of study drug was administered after all study assessments have been performed and all laboratory samples collected.
# The dose of mAb316P was increased, in a blinded manner, from 75 mg to 150 mg SC Q2W, starting at week 12, based on baseline CV risk in the following circumstances:
# (§1) The primary efficacy endpoint was the percent change in calculated LDL-C from baseline to week 24, which is defined as: 100× (calculated LDL-C value at week 24−calculated LDL-C value at baseline)/calculated LDL-C value at baseline. The baseline calculated LDL-C value was the last LDL-C level obtained before the first double-blind study drug injection. The calculated LDL-C at week 24 will be the LDL-C level obtained within the week 24 analysis window and during the main efficacy period. The main efficacy period was defined as the time from the first double-blind study drug injection up to 21 days after the last double-blind study drug injection or up to the upper limit of the week 24 analysis window, whichever comes first.
# Total-C, HDL-C, TG, ApoB, ApoA-1, and Lp (a) were directly measured by a central laboratory. […]
# [2] = system: patients with hypercholesterolemia at high CV risk not adequately controlled with rosuvastatin (10 mg or 20 mg); test: Example 3: randomized, double-blind trial, lipid efficacy of mAb316P add-on to rosuvastatin vs EZE add-on or rosuvastatin dose doubling; format: in vivo, human; conditions: for Proportion of Patients Reaching LDL-C goal (%): week 24, LDL-C <70 mg/dL very high risk or <100 mg/dL high risk
# Experimental: The present study was a randomized, double-blind, active-comparator, parallel-group study in patients at high CV risk with non-FH or heFH who are not adequately controlled with rosuvastatin (10 mg or 20 mg) with or without other lipid-modifying therapy (LMT) (excluding EZE). The study design is illustrated in FIG. 2. Patients who entered the study were taking either rosuvastatin 10 mg or rosuvastatin 20 mg. The former patients were randomized to 1 of 3 treatment arms (arms 1 to 3); the latter patients were randomized to 1 of 3 treatment arms (arms 4 to 6). The treatment arms are as follows:
# (B) a double-blind treatment period of 24 weeks. […] The patient/caregiver administered subsequent injections outside of the clinic according to the dosing schedule. […] The last dose of daily oral study drugs was administered at week 24.
# The first injection of study drug was administered at the clinical site, as soon as possible after the patient was randomized into the study. The patient was monitored at the clinical site for at least 30 minutes following the first injection. The patient/caregiver administered subsequent injections outside of the clinic, according to the dosing schedule.
# as §1, with “24 was” for “24 will be”, “period is” for “period was”
# Total-C, HDL-C, TG, ApoB, ApoA-1, and Lp(a) were directly measured by a central laboratory. LDL-C was calculated using the Friedewald formula. […] Non-HDL-C was calculated by subtracting HDL-C from the total-C. Ratio ApoB/ApoA-1 was calculated.
# For clarification, the ITT analysis is defined for patients in the ITT population and includes all endpoint assessments in an analysis window, regardless of study treatment dosing status (i.e. includes post-treatment assessments). The on-treatment analysis is defined for patients in the mITT population and includes all endpoint assessments from the first double-blind study drug (capsule or injection, whichever comes first) up to 21 days after the last double-blind study drug injection or 3 days after the last capsule intake, whichever comes first (i.e. includes assessments in the efficacy treatment period).
# [3] = system: patients with hypercholesterolemia at high CV risk not adequately controlled with atorvastatin (20 mg or 40 mg); test: Example 2: safety, treatment-emergent adverse events in pooled treatment groups; conditions: Safety Population, pooled treatment groups
# Experimental: For the pooled data, three treatment groups are formed by combining treatment arms regardless of the atorvastatin doses as follows:
# (2) EZE treatment group: pooling EZE+atorva 20 mg arm and EZE+atorva 40 mg arm;
# [4] = system: patients with hypercholesterolemia at high CV risk not adequately controlled with rosuvastatin (10 mg or 20 mg); test: Example 3: safety, treatment-emergent adverse events in pooled treatment groups; conditions: Safety Population; pooled treatment groups
smiles,measurement,setting,value
"O=C1[C@H](CC[C@H](O)c2ccc(F)cc2)[C@@H](c2ccc(O)cc2)N1c1ccc(F)cc1 [EZE, ezetimibe, reference compound]",LDL-C reductions observed,"[1]; across atorvastatin 20 mg and 40 mg regimens, ezetimibe add-on groups, atorvastatin dose increase groups",20.5-22.6%
same,reduced LDL-C levels by,"[1]; atorvastatin 20 mg regimen, add-on ezetimibe or doubling of atorvastatin dose",20.5%
same,reduced LDL-C levels by,"[1]; atorvastatin 40 mg regimen, add-on ezetimibe, doubling of atorvastatin dose or switch to rosuvastatin 40 mg",22.6%
same,Proportion of Patients Reaching LDL-C goal (%),[2]; Baseline Rosuvastatin 10 mg,57.2%
same,Proportion of Patients Reaching LDL-C goal (%),[2]; Baseline Rosuvastatin 20 mg,52.2%
same,proportion of patients who reached LDL-C level of <70 mg/dL (1.81 mmol/L) at Week 24,[2]; baseline rosuvastatin 10 mg regimen,43.1%
same,proportion of patients who reached LDL-C level of <70 mg/dL (1.81 mmol/L) at Week 24,[2]; baseline rosuvastatin 20 mg regimen,43.6%
same,General Allergic TEAEs (SMQ Hypersensitivity),[3],5 (5.0%) patients (%)
same,"SOC Injury, poisoning and procedural complications",[3],12 (11.9%) patients (%)
same,SOC Musculoskeletal and connective tissue disorders,[3],13 (12.9%) patients (%)
same,"SOC Neoplasms benign, malignant and unspecified (incl cysts and polyps)",[3],0 patients (%)
same,SOC Nervous system disorders,[3],6 (5.9%) patients (%)
same,TEAEs,[3],65 (64.4%) patients (%)
same,Treatment-emergent SAEs,[3],7 (6.9%) patients (%)
same,Treatment-emergent injection site reactions (ISRs),[3],3 (3.0%) patients (%)
same,Treatment-emergent neurologic disorders,[3],1 (1.0%) patients (%)
same,discontinued study treatment early due to a treatment emergent adverse event (TEAE),[3],4 (4.0%) patients (%)
same,patient deaths,[3],Two
same,Treatment-emergent cardiovascular events adjudicated positively,[3]; ischemia driven coronary revascularization procedure,1 (1.0%) patients (%)
same,General Allergic TEAEs,[4],2 (2.0%) patients (%)
same,SOC General disorders and administration site conditions,[4],8 (7.9%) patients (%)
same,SOC Psychiatric disorders,[4],4 (4.0%) patients (%)
same,"SOC Respiratory, thoracic and mediastinal disorders",[4],2 (2.0%) patients (%)
same,SOC Skin and subcutaneous tissue disorders,[4],5 (5.0%) patients (%)
same,TEAEs,[4],54 (53.5%) patients (%)
same,Treatment-emergent SAEs,[4],8 (7.9%) patients (%)
same,Treatment-emergent cardiovascular events adjudicated positively,[4],1 (1.0%) patients (%)
same,Treatment-emergent neurocognitive disorders,[4],1 (1.0%) patients (%)
same,Treatment-emergent neurologic disorders,[4],3 (3.0%) patients (%)
same,cough,[4],0 patients (%)
same,discontinued study treatment early due to a treatment emergent adverse event,[4],8 (7.9%) patients (%)
same,injection site reactions (ISRs),[4],0 patients (%)
